Source: ChEMBL document CHEMBL1157239, “Hurghadolide A and swinholide I, potent actin-microfilament disrupters from the Red Sea sponge Theonella swinhoei” (J Nat Prod, 2006)
Values after ≈ are worked out from the molar mass of the structure shown. Values joined by “and” are separate entries in the source; they are usually repeats but may differ in a detail not shown here. Equal values may be shown once. Active and inactive are the calls of the source. No cut-off for these calls is given here.

How the values were obtained:
A10 [1] = assay: Disruption of actin cytoskeleton in rat A10 cells assessed as generation of binucleated cells at 7.3 nM after 24 hrs by TRITC-phalloidin assay; assay type: functional, cell-based
Candida albicans [2] = assay: Antifungal activity against wild-type Candida albicans; assay type: functional
Candida albicans [3] = assay: Antifungal activity against amphotericin B-resistant Candida albicans; assay type: functional
HCT-116 = assay: Cytotoxicity against human HCT116 cells after 72 hrs by MTS reduction assay; assay type: functional, cell-based; settings: HCT-116, 72 h
A10 [4] = assay: Disruption of actin cytoskeleton in rat A10 cells assessed as generation of binucleated cells at 70 nM after 24 hrs by TRITC-phalloidin assay; assay type: functional, cell-based

| SMILES | Activity (A10 [1]) | MIC (Candida albicans [2]) | MIC (Candida albicans [3]) | IC50 (HCT-116) | Activity (A10 [4]) |
| --- | --- | --- | --- | --- | --- |
| CO[C@H]1C[C@H](CC[C@H](C)[C@H](O)[C@H](C)[C@H]2OC(=O)/C=C/C(C)=C/C[C@H](O)C[C@@H]3C=CC[C@@H](C[C@H](OC)[C@@H](C)[C@@H](O)C[C@@H](O)[C@H](C)[C@@H]([C@@H](C)[C@@H](O)[C@@H](C)CC[C@H]4C[C@H](OC)C[C@H](C)O4)OC(=O)/C=C/C(C)=C/C[C@H](O)C[C@@H]4C=CC[C@@H](C[C@H](OC)[C@@H](C)[C@@H](O)C[C@@H](O)[C@@H]2C)O4)O3)O[C@@H](C)C1 | Active |  |  |  |  |
| C[C@@H]1[C@H](O)[C@@H](C)/C=C/C=C/C=C/C=C/C=C/C=C/C=C/[C@H](O[C@@H]2O[C@H](C)[C@@H](O)[C@H](N)[C@@H]2O)C[C@@H]2O[C@](O)(C[C@@H](O)C[C@@H](O)[C@H](O)CC[C@@H](O)C[C@@H](O)CC(=O)O[C@H]1C)C[C@H](O)[C@H]2C(=O)O [AMPHOTERICIN B] |  | 1.56 µg/mL (≈ 1.69 µM) |  |  |  |
| CO[C@H]1C[C@H](CC[C@H](C)[C@H](O)[C@H](C)[C@H]2OC(=O)/C=C/C(C)=C/C[C@H](O)C[C@@H]3C=CC[C@@H](C[C@H](OC)[C@@H](C)[C@@H](O)C[C@@H](O)[C@H](C)[C@@H]([C@@H](C)[C@@H](O)[C@@H](C)CC[C@H]4C[C@H](OC)C[C@H](C)O4)OC(=O)/C(C)=C/C[C@H](O)C[C@@H]4C=CC[C@@H](C[C@H](OC)[C@@H](C)[C@@H](O)C[C@@H](O)[C@@H]2C)O4)O3)O[C@@H](C)C1 [HURGHADOLIDE A] |  | 31.3 µg/mL (≈ 22.9 µM) | 31.3 µg/mL (≈ 22.9 µM) | 365 nM and 0.5 µg/mL |  |
| CO[C@@H]1C[C@H](C)O[C@@H](C(O)C[C@H](C)[C@H](O)[C@H](C)[C@H]2OC(=O)/C=C/C(C)=C/C[C@H](O)C[C@@H]3C=CC[C@@H](C[C@H](OC)[C@@H](C)[C@@H](O)C[C@@H](O)[C@H](C)[C@@H]([C@@H](C)[C@@H](O)[C@@H](C)CC[C@H]4C[C@H](OC)C[C@H](C)O4)OC(=O)/C=C/C(C)=C/C[C@H](O)C[C@@H]4C=CC[C@@H](C[C@H](OC)[C@@H](C)[C@@H](O)C[C@@H](O)[C@@H]2C)O4)O3)C1 (some centres undefined) [Swinholide I] |  | 62.2 µg/mL (≈ 44.2 µM) | 500 µg/mL (≈ 356 µM) | 5.6 nM and 0.008 µg/mL | Active |
